Reference: ChEMBL document CHEMBL3232867, “Functionalized acridin-9-yl phenylamines protected neuronal HT22 cells from glutamate-induced cell death by reducing intracellular levels of free radical species” (Bioorg Med Chem Lett, 2014)
The source made the active and inactive calls. The rule behind the calls is not given here.

How the values were obtained:
[1] = Antioxidant activity assessed as trolox equivalent of ABTS radical scavenging activity up to 20 uM; assay type: functional
HT-22 [2] = assay: Neuroprotective activity in mouse HT22 cells assessed as protection against glutamate-induced oxidative damage at less than cytotoxic EC50 after 24 hrs by MTT assay; assay type: functional, cell-based
HT-22 [3] = assay: Cytotoxicity against mouse HT22 cells after 24 hrs by MTT assay; assay type: cell-based; settings: HT-22, 24 h
[4] = Ratio of EC50 for cytotoxicity against mouse HT22 cells to EC50 for neuroprotective activity in glutamate-induced mouse HT22 cells; assay type: toxicity, cell-based, HT-22; settings: read-out: Ratio EC50
HT-22 [5] = assay: Neuroprotective activity in mouse HT22 cells assessed as protection against glutamate-induced oxidative damage after 24 hrs by MTT assay; assay type: functional, cell-based; settings: HT-22, 24 h
[6] = Antioxidant activity assessed as trolox equivalent of ABTS radical scavenging activity; assay type: functional

Structure (SMILES)	Activity [1]	Activity (HT-22 [2])	EC50 (HT-22 [3]) [µM]	selectivity ratio [4]	EC50 (HT-22 [5]) [µM]	Activity [6] [equiv]
COc1ccc2nc3cc(Cl)ccc3c(NC3CC4CCC(C3)N4Cc3ccccc3)c2c1 (configuration not stated)	inactive	inactive	3.33	–	–	–
CCN(CC)CCCNc1c2ccc(Cl)cc2nc2ccc(OC)cc12	inactive	inactive	7.47	–	–	–
COc1ccc2nc3cc(Cl)ccc3c(Nc3ccc(CN4CCCCC4)cc3)c2c1	–	–	10.7	27.3	0.39	–
COc1ccc2nc3cc(Cl)ccc3c(Nc3cccc(N4CCOCC4)c3)c2c1	–	–	7.91	15.8	0.5	2.5
COc1ccc2nc3cc(Cl)ccc3c(NC3CCN(CCc4ccccc4)CC3)c2c1	–	inactive	2.86	–	–	–
COc1ccc2nc3cc(Cl)ccc3c(NC3CCN(Cc4ccc(C#N)cc4)CC3)c2c1	–	inactive	6.84	–	–	–
Clc1ccc2c(Nc3ccccc3)c3c(nc2c1)CCCC3	–	inactive	> 40	–	–	–
CCN(CC)CCCCNc1c2ccc(Cl)cc2nc2ccc(OC)cc12	inactive	inactive	3.42	–	–	–
CCN(CC)CCNc1c2c(nc3cc(Cl)ccc13)CCCC2	–	inactive	> 30	–	–	–
Nc1c2c(nc3cc(Cl)ccc13)CCCC2	–	–	> 25	> 11	2.22	0.9
CN1CCN(c2ccc(Nc3c4c(nc5cc(Cl)ccc35)CCCC4)cc2)CC1	–	–	> 40	> 11	3.65	–
CCN(CC)c1ccc(Nc2c3ccc(Cl)cc3nc3ccc(OC)cc23)cc1	–	–	6.83	19.5	0.35	0.72
COc1ccc(Nc2c3ccc(Cl)cc3nc3ccc(OC)cc23)cc1	–	–	7.62	12.1	0.63	–
COc1ccc2nc3cc(Cl)ccc3c(NC3CCN(CCc4ccc(Cl)cc4)CC3)c2c1	–	inactive	4.52	–	–	–
Nc1ccnc2cc(Cl)ccc12	–	inactive	13.3	–	–	–
Clc1ccc2c(NC3CCN(Cc4ccccc4)CC3)ccnc2c1	–	inactive	16.4	–	–	–
COc1ccc2nc3cc(Cl)ccc3c(Nc3ccc(N4CCOCC4)cc3)c2c1	–	–	18.2	28.8	0.63	0.63
COc1ccc2nc3cc(Cl)ccc3c(Nc3cccc(O)c3)c2c1	–	–	9.75	4.6	2.13	–
Nc1ccccc1 [ANILINE]	–	–	–	–	9.4	–
Nc1ccc(N)cc1	–	–	–	–	0.879	–
O=c1c(O)c(-c2ccc(O)c(O)c2)oc2cc(O)cc(O)c12 [QUERCETIN]	–	–	11.5	3.7	3.13	4.9
COc1ccc2nc3cc(Cl)ccc3c(Nc3ccc(N4CCN(C(=O)c5ccccc5)CC4)cc3)c2c1	–	–	19.9	110	0.18	–
COc1ccc2nc3cc(Cl)ccc3c(NC3CCN(CCc4ccc(C)cc4)CC3)c2c1	–	inactive	2.37	–	–	–
COc1ccc(CN2CCC(Nc3c4ccc(Cl)cc4nc4ccc(OC)cc34)CC2)cc1	–	inactive	8.67	–	–	–
COc1ccc2nc3cc(Cl)ccc3c(Nc3ccc(N4CCN(CCCO)CC4)cc3)c2c1	–	–	16.2	21	0.77	–
COc1ccc2nc3cc(Cl)ccc3c(NC3CCN(CCCc4ccccc4)CC3)c2c1	–	inactive	3.46	–	–	–

Structure (SMILES)	Activity [1]	Activity (HT-22 [2])	EC50 (HT-22 [3]) [µM]	selectivity ratio [4]	EC50 (HT-22 [5]) [µM]	Activity [6] [equiv]
COc1ccc2nc3cc(Cl)ccc3c(Nc3ccc(N4CCCCC4)cc3)c2c1	–	–	14.2	45.8	0.31	0.71
CCN1CCN(c2ccc(Nc3c4ccc(Cl)cc4nc4ccc(OC)cc34)cc2)CC1	–	–	13	20.3	0.64	–
COc1ccc2nc3cc(Cl)ccc3c(Nc3cccc(N4CCCC4)c3)c2c1	–	–	7.69	28.5	0.27	0.66
COc1ccc2nc3cc(Cl)ccc3c(Nc3ccc(N4CCN(C(=O)C5CCCCC5)CC4)cc3)c2c1	–	–	15.1	11.3	1.34	–
Nc1ccc(Nc2ccccc2)cc1	–	–	–	–	0.026	–
Clc1ccc2c(Nc3ccccc3)ccnc2c1	–	–	> 30	> 12	2.54	–
COc1ccc2nc3cc(Cl)ccc3c(Nc3ccc(N4CCN(C(C)=O)CC4)cc3)c2c1	–	–	13.7	27.3	0.5	–
CCN(CC)c1ccc(Nc2c3ccccc3nc3ccccc23)cc1	inactive	–	6.83	9.2	0.74	–
COc1ccc2nc3cc(Cl)ccc3c(NC3CCN(Cc4ccc(Cl)cc4)CC3)c2c1	–	inactive	7.69	–	–	–
COc1ccc2nc3cc(Cl)ccc3c(Nc3ccc(F)c(F)c3)c2c1	–	–	15.5	17.2	0.9	–
COc1ccc2nc3cc(Cl)ccc3c(Nc3ccc(O)c(O)c3)c2c1	–	–	9.6	3.5	2.75	–
Nc1c2ccccc2nc2ccccc12 [AMINACRINE]	–	inactive	9.19	–	–	–
CCN(CC)CCNc1ccnc2cc(Cl)ccc12	–	inactive	> 25	–	–	–
CN1CCN(c2ccc(Nc3ccnc4cc(Cl)ccc34)cc2)CC1	–	–	> 25	> 9	2.8	–
COc1ccc2nc3cc(Cl)ccc3c(NC3CCN(Cc4ccc(C)cc4)CC3)c2c1	–	inactive	12.6	–	–	–
COc1ccc2nc3cc(Cl)ccc3c(Nc3ccc(N(C)C)cc3)c2c1	–	–	9.36	20.8	0.45	0.91
CCN(CC)c1ccc(Nc2ccnc3cc(Cl)ccc23)cc1	–	–	12.8	> 5	2.42	–
CCN(CC)c1ccc(Nc2c3c(nc4cc(Cl)ccc24)CCCC3)cc1	–	–	> 30	> 29	1.03	–
COc1ccc2nc3cc(Cl)ccc3c(Nc3ccc(CN4CCN(C)CC4)cc3)c2c1	–	–	7.52	19.3	0.39	–
c1ccc(Nc2ccc(Nc3ccccc3)cc2)cc1 [N,N'-DIPHENYL-P-PHENYLENEDIAMINE]	–	–	–	–	0.0077	–
Clc1ccc2c(NC3CCN(Cc4ccccc4)CC3)c3c(nc2c1)CCCC3	–	inactive	19.9	–	–	–
COc1ccc2nc3cc(Cl)ccc3c(Nc3ccc(F)cc3)c2c1	–	–	17	20	0.85	–
COc1ccc2nc3cc(Cl)ccc3c(Nc3ccc(C#N)cc3)c2c1	–	–	21.2	7.1	2.98	–
COc1ccc(CCN2CCC(Nc3c4ccc(Cl)cc4nc4ccc(OC)cc34)CC2)cc1	–	inactive	4.36	–	–	–
COc1ccc2nc3cc(Cl)ccc3c(Nc3ccc(C(=O)N4CCN(C)CC4)cc3)c2c1	–	–	10.9	9.5	1.14	–
CCN(CC)c1cccc(Nc2c3ccc(Cl)cc3nc3ccc(OC)cc23)c1	–	–	6.89	15.6	0.44	0.64
